According to patent US11491134B2, “Composition for inhibiting skin cell proliferation and/or anti-inflammation method for inhibiting skin cell proliferation and/or anti-inflammation and method for treating skin diseases and/or inflammatory diseases” (Industrial Technology Research Institute, priority 2019, dated 2022):

Test system: macrophages, RAW264.7 cells
Test: Inhibition rate on inflammation (anti-inflammatory activity): nitric oxide, Griess reagent, LPS-treated macrophages
Format: cell-based
Settings: Mus musculus; for inhibition at 1.5625 µM: luteolin 1.5625 μM/0.45 μg/mL; for inhibition at 3.125 µM: luteolin 3.125 μM/0.89 μg/mL; for inhibition at 6.25 µM: luteolin 6.25 μM/1.79 μg/mL; for inhibition at 12.5 µM: luteolin 12.5 μM/3.58 μg/mL; for inhibition at 25 µM: luteolin 25 μM/7.16 μg/mL; for inhibition at 50 µM: luteolin 50 μM/14.31 μg/mL; for inhibition at 0.3125 µM: luteolin 0.3125 μM/0.09 μg/mL; for inhibition at 0.625 µM: luteolin 0.625 μM/0.18 μg/mL; for inhibition at 1.25 µM: luteolin 1.25 μM/0.36 μg/mL; for inhibition at 2.5 µM: luteolin 2.5 μM/0.72 μg/mL; for inhibition at 5 µM: luteolin 5 μM/1.43 μg/mL; for inhibition at 100 µM: luteolin 100 μM/28.62 μg/mL
Method: Dimethyl sulfoxide (DMSO) was used as a solvent to prepare apigenin test samples with different concentrations and luteolin test samples with different concentrations. 9 batches of experiments were performed, which respectively were Batch 1 to Batch 9. There were 6 independent experiments in each batch of experiments. In each independent experiment, inhibition rate of an apigenin test sample with a specific concentration on inflammation and inhibition rate of a luteolin test sample with a specific concentration on inflammation were determined, and inhibition rate of a combination of an apigenin test sample with the said specific concentration and a luteolin test sample with the said specific concentration on inflammation was determined. Between the independent experiments, concentrations of apigenin test samples used were different, and concentrations of luteolin test samples used were also different, however, mole ratios or weight ratios of apigenin test samples to luteolin test samples were the same. Moreover, between the batches of experiments, mole ratios or weight ratios of apigenin test samples to luteolin test samples were different. 5×10^4 macrophages, RAW264.7 cells, were inoculated in a 96-well culture plate and then placed in a 37° C. and 5% CO2 incubator for culturing overnight. After overnight culture, the supernatant was removed, and lipopolysaccharide (LPS) (50 ng/mL) and a test sample was added to the cells (refer to Table 2, and the cells of the induced group were treated with lipopolysaccharide and dimethyl sulfoxide while the cells of the control group were only treated with dimethyl sulfoxide) for reaction for 24 hours. Thereafter, the supernatant of each well in the culture plate was transferred to a new culture plate and reacted with Griess reagent (Promega, Cat. No. G2930), respectively, and then the absorbance of each well of the culture plate was determined at 540 nm by a continuous wavelength microplate reader to evaluate the content of nitric oxide (NO), and anti-inflammatory activity was calculated through the following formula: Anti-inflammation=(Induced group540 nm−Experimental group540 nm)/(Induced group540 nm−Control group540 nm) In this experiment, the synergistic effects of apigenin and luteolin were evaluated by CalcuSyn software (BIOSOFT). CalcuSyn software is an analysis software which is commonly used to analyze the drug dosage effect of single drug and multiple drugs at present. CalcuSyn software can be used to analyze drug complex interactions and automatically quantify various phenomena such as synergism and inhibition. CalcuSyn software can process the data of individual drugs and combination drugs with constant-ratio or on-constant-ratio, and can evaluate the interaction of combination drugs by the combination index (CI) (Chou and Talalay, Adv. Enzyme Regul. 22:27-55 (1984) calculated by CalcuSyn software. Calculation formula for the combination index is shown in the following: Combination index=C1/IC1+C2/IC2 C1 and C2 are the respective concentrations of the first compound and the second compound at which the activity of achieving a specific physiological or medical purpose is 50% (or 75%, or 90%) when the first compound and the second compound are analyzed in combination; IC1 and IC2 are the respective concentrations at which the activity of achieving a specific physiological or medical purpose of the first compound and the second compound is 50% (or 75%, or 90%) when the first compound and the second compound are independently analyzed. […]

O=c1cc(-c2ccc(O)c(O)c2)oc2cc(O)cc(O)c12 [Luteolin, luteolin]
inhibition at 1.5625 µM (RAW264.7, Batch 1): 0.1%
inhibition at 3.125 µM (RAW264.7, Batch 1): 21.4%
inhibition at 6.25 µM (RAW264.7, Batch 1): 37.2%
inhibition at 12.5 µM (RAW264.7, Batch 1): 56.3%
inhibition at 25 µM (RAW264.7, Batch 1): 84.1%
inhibition at 50 µM (RAW264.7, Batch 1): 99.9%
inhibition at 0.78 µM (RAW264.7, Batch 2, luteolin 0.78 μM/0.22 μg/mL): 0.1%
inhibition at 1.5625 µM (RAW264.7, Batch 2): 5.8%
inhibition at 3.125 µM (RAW264.7, Batch 2): 15.4%
inhibition at 6.25 µM (RAW264.7, Batch 2): 29.9%
inhibition at 12.5 µM (RAW264.7, Batch 2): 48.8%
inhibition at 25 µM (RAW264.7, Batch 2): 75.7%
inhibition at 0.3125 µM (RAW264.7, Batch 3): 0.1%
inhibition at 0.625 µM (RAW264.7, Batch 3): 0.1%
inhibition at 1.25 µM (RAW264.7, Batch 3): 0.1%
inhibition at 2.5 µM (RAW264.7, Batch 3): 5.1%
inhibition at 5 µM (RAW264.7, Batch 3): 49%
inhibition at 10 µM (RAW264.7, Batch 3, luteolin 10 μM/2.86 μg/mL): 80.3%
inhibition at 0.15625 µM (RAW264.7, Batch 4, luteolin 0.15625 μM/0.04 μg/mL): 0.1%
inhibition at 0.3125 µM (RAW264.7, Batch 4): 0.1%
inhibition at 0.625 µM (RAW264.7, Batch 4): 0.1%
inhibition at 1.25 µM (RAW264.7, Batch 4): 0.1%
inhibition at 2.5 µM (RAW264.7, Batch 4): 0.1%
inhibition at 5 µM (RAW264.7, Batch 4): 35.9%
inhibition at 0.078 µM (RAW264.7, Batch 5, luteolin 0.078 μM/0.02 μg/mL): 0.1%
inhibition at 0.156 µM (RAW264.7, Batch 5, luteolin 0.156 μM/0.04 μg/mL): 0.1%
inhibition at 0.3125 µM (RAW264.7, Batch 5): 9.8%
inhibition at 0.625 µM (RAW264.7, Batch 5): 3.1%
inhibition at 1.25 µM (RAW264.7, Batch 5): 0.5%
inhibition at 2.5 µM (RAW264.7, Batch 5): 16.1%
inhibition at 3.125 µM (RAW264.7, Batch 6): 11.1%
inhibition at 6.25 µM (RAW264.7, Batch 6): 40.8%
inhibition at 12.5 µM (RAW264.7, Batch 6): 67.1%
inhibition at 25 µM (RAW264.7, Batch 6): 89.6%
inhibition at 50 µM (RAW264.7, Batch 6): 99.9%
inhibition at 100 µM (RAW264.7, Batch 6): 99.9%
inhibition at 3.125 µM (RAW264.7, Batch 7): 13.3%
inhibition at 6.25 µM (RAW264.7, Batch 7): 43.9%
inhibition at 12.5 µM (RAW264.7, Batch 7): 70.2%
inhibition at 25 µM (RAW264.7, Batch 7): 89.3%
inhibition at 50 µM (RAW264.7, Batch 7): 99.9%
inhibition at 100 µM (RAW264.7, Batch 7): 99.9%
inhibition at 3.125 µM (RAW264.7, Batch 8): 8.9%
inhibition at 6.25 µM (RAW264.7, Batch 8): 34.4%
inhibition at 12.5 µM (RAW264.7, Batch 8): 67.9%
inhibition at 25 µM (RAW264.7, Batch 8): 90.4%
inhibition at 50 µM (RAW264.7, Batch 8): 99.9%
inhibition at 100 µM (RAW264.7, Batch 8): 99.9%
inhibition at 1.5625 µM (RAW264.7, Batch 9): 4.9%
inhibition at 3.125 µM (RAW264.7, Batch 9): 26.5%
inhibition at 6.25 µM (RAW264.7, Batch 9): 67%
inhibition at 12.5 µM (RAW264.7, Batch 9): 87%
inhibition at 25 µM (RAW264.7, Batch 9): 94.2%
inhibition at 50 µM (RAW264.7, Batch 9): 98.3%
